The text below walks through data of ChEMBL document CHEMBL1155515, “Discovery of novel selective norepinephrine reuptake inhibitors: 4-[3-aryl-2,2-dioxido-2,1,3-benzothiadiazol-1(3H)-yl]-1-(methylamino)butan-2-ols (WYE-103231)” (J Med Chem, 2010).

The term AUC(0-inf) denotes the area under the concentration-time curve extrapolated to infinity. For orientation: bioavailability means the share of a dose that reaches the circulation, judged against a reference dose that is usually intravenous. Low readings indicate poor availability, high ones good availability. The Tmax is the time at which the peak concentration occurs. As usually defined, the Cmax is the maximum level reached in the sampled fluid or tissue.

Format in all cases: ADME, organism-based
Series [1] can be described thus: AUC (0 to infinity) in ovariectomised female rat at 2 mg/kg, iv. Also noted: time infinity, dose 2 mg/kg, route intravenous. The conditions noted are these: plasma.
Series [2] is described as follows: Oral bioavailability in intact female rat at 5 mg/kg. The conditions noted are these: in vivo.
Series [3] is described as follows: Volume of distribution at steady state in ovariectomised female rat at 2 mg/kg, iv. Also noted: dose 2 mg/kg, route intravenous. The following applies: in vivo, read-out: Vdss.
Series [4] in a line: Ratio of drug level from brain to plasma in ovariectomised female rat. The following applies: read-out: BPR.
Series [5] in a line: Tmax in intact female rat at 5 mg/kg, po. Also noted: dose 5 mg/kg, route oral. The following applies: in vivo.
Series [6] in a line: Oral bioavailability in ovariectomised female rat at 5 mg/kg. The following applies: in vivo.
Series [7] in a line: Volume of distribution at steady state in male rat at 2 mg/kg, iv. Also noted: dose 2 mg/kg, route intravenous. The conditions noted are these: in vivo, read-out: Vdss.
Series [8] is described as follows: AUC (0 to infinity) in intact female rat at 5 mg/kg, po. Also noted: time infinity, dose 5 mg/kg, route oral. The following applies: plasma.
Series [9] is described as follows: Oral bioavailability in male rat at 10 mg/kg. The following applies: in vivo.
The nature of series [10]: AUC (0 to infinity) in intact female rat at 2 mg/kg, iv. Also noted: time infinity, dose 2 mg/kg, route intravenous. The conditions noted are these: plasma.
A short description of series [11]: Cmax in male rat at 10 mg/kg, po. Also noted: dose 10 mg/kg, route oral. The conditions noted are these: in vivo.
Series [12] can be described thus: Cmax in intact female rat at 5 mg/kg, po. The conditions noted are these: in vivo. Also noted: dose 5 mg/kg, route oral.
Series [13] is described as follows: AUC (0 to infinity) in ovariectomised female rat at 5 mg/kg, po. Also noted: dose 5 mg/kg, route oral, time infinity. The following applies: plasma.
Series [14] is described as follows: Tmax in male rat at 10 mg/kg, po. Also noted: dose 10 mg/kg, route oral. The conditions noted are these: in vivo.
Series [15] in a line: AUC (0 to infinity) in male rat at 10 mg/kg, po. The following applies: plasma. Also noted: time infinity, dose 10 mg/kg, route oral.
The nature of series [16]: AUC (0 to infinity) in male rat at 2 mg/kg, iv. Also noted: time infinity, dose 2 mg/kg, route intravenous. The conditions noted are these: plasma.
The nature of series [17]: Tmax in ovariectomised female rat at 5 mg/kg, po. Also noted: dose 5 mg/kg, route oral. The conditions noted are these: in vivo.
A short description of series [18]: Cmax in ovariectomised female rat at 5 mg/kg, po. Also noted: dose 5 mg/kg, route oral. The conditions noted are these: in vivo.
A short description of series [19]: Volume of distribution at steady state in intact female rat at 2 mg/kg, iv. Also noted: dose 2 mg/kg, route intravenous. The following applies: in vivo, read-out: Vdss.

Regarding `CNC[C@@H](O)CCN1c2ccccc2N(c2ccccc2F)S1(=O)=O`, the AUC(0-inf) was determined as 505 ng·h/mL in series [1]; 959 ng·h/mL in series [8]; 929 ng·h/mL in series [10]; 1200 ng·h/mL in [13]; 1040 ng·h/mL in [15]; 199 ng·h/mL in series [16]. Besides, the bioavailability came to 41.3% in series [2], 95.2% in series [6] and 100% in [9]. The Vd in series [3] was determined as 25.3 L/kg; in [7], 36.3 L/kg; in series [19] it was 11.3 L/kg. Moreover, the Kp in series [4] was found to be 3.6. Further, the Tmax in series [5] was 0.56 h; in series [14], 1.38 h; in series [17], 1.63 h. For the same compound, the Cmax in [11] amounted to 154 ng/mL; in series [12], 135 ng/mL; in series [18], 125 ng/mL.
